Drawing on patent EP0897920A1, “NOVEL HETEROCYCLIC COMPOUNDS HAVING PLATELET AGGREGATION INHIBITORY EFFECTS” (MEIJI SEIKA KABUSHIKI KAISHA, priority 1996, dated 1997), this text covers IC50 for eight compounds.

For assay [1], the target named is T1, human platelet GPIIb/IIIa (Homo sapiens, UniProt P05106+P08514).
T1 construct: the adsorbed GPIIb/IIIa was eluted with buffer A containing 2 mM GRGDSPK peptide; from tissue
As to the kind of experiment: Inhibitory activity against binding between platelet GPIIb/IIIa and fibrinogen (solid phase receptor binding). From the text: The inhibitory activity of the compounds of the present invention against binding between platelet GPIIb/IIIa and fibrinogen was examined by means of a human platelet GPIIb/IIIa solid phase receptor binding experiment system using a biotinylated human fibrinogen as a ligand.
At the outset, human platelet GPIIb/IIIa was purified according to a method established by Pytela, R et al. (Science, 231, 1559-1561 (1986)). Specifically, platelets collected from a normal human being was washed with TBS (0.15 M NaCl/50 mM Tris-HCl buffer (pH 7.5)) containing 0.2% (w/v) glucose. To the resultant pellet was added an equal amount of TBS containing 50 mM octylglucoside and 2 mM PMSF, followed by solubilization of membrane protein at 4°C for 20 min. The extract was centrifuged under conditions of 4°C, 3500 x g, and 20 min. To the supernatant were added 1 mM CaCl2 and 1 mM MgCl2. Thus, a sample for affinity chromatography was prepared. The solubilized protein solution was adsorbed on a GRGDSPK-Sepharose column which had been previously equilibrated with TBS containing 50 mM octylglucoside, 1 mM CaCl2, and 1 mM MgCl2 (buffer A). After washing with buffer A, the adsorbed GPIIb/IIIa was eluted with buffer A containing 2 mM GRGDSPK peptide.
The GRGDSPK-Sepharose was prepared by coupling of GRGDSPK peptide with CNBr-activated Sepharose 4B (manufactured by Pharmacia) according to the instruction manual of the manufacturer.
Next, a human platelet GPIIb/IIIa solid phase receptor binding test was carried out according to a method established by Mori et al. (Nippon Kessen Shiketsu Gakkaishi, 2(4), 323-329 (1991)).
Purified human platelet GPIIb/IIIa was adjusted to 2 µg/ml, and an 50 µl aliquot was adsorbed on each well of a 96 well microtiter plate at 4°C overnight. After washing with TBS containing 1 mM CaCl2 and 1 mM MgCl2, 100 µl of 1% bovine serum albumin was added to each of the wells, followed by blocking at 4°C overnight. The microtiter plate was then washed with TBS containing 0.01% Tween 20 (TBS-Tween 20), and 50 µl of biotinylated fibrinogen, which had been adjusted to 1 µg/ml, was added to each of the wells. Simultaneously, 50 µl of the test compound, which had been adjusted to appropriate concentrations, was added thereto, followed by a reaction at room temperature for 4 hr. After washing with TBS-Tween 20, 50 µl of peroxidase-labelled avidin, which had been diluted 4000 times with TBS, was added to each of the wells, followed by a reaction for 20 min. After washing with TBS-Tween 20, 50 µl of a solution of 1 mg/ml ABTS (2,2'-azino-bis(3-ethylbenzthiazoline-6-sulfonic acid) dissolved in a peroxidase substrate buffer, which had been diluted 10 times, was added to each of the wells, and a reaction was allowed to proceed for 5 min. Next, 50 µl of a 0.1 M citric acid buffer (pH 4.3) containing 0.05% NaN3 was added to each of the wells to terminate the reaction, and the absorbance was measured at 415 nm.
The binding inhibition was calculated by the following equation.
Binding inhibition (%) = [1 - (absorbance with test compound/absorbance without test compound)] x 100

Assay [2] deals with human PRP (platelet rich plasma). As to the kind of experiment: Inhibitory activity against platelet aggregation (ADP-induced, human PRP). Format: cell-based. The following applies: aggregation inducer ADP 5 µM, preincubated 2 min. The protocol:
The inhibitory activity of the compound according to the present invention against platelet aggregation was examined with human PRP (platelet rich plasma).
Nine volumes of a blood sample was taken out of the vein of a normal human being with a syringe in which one volume of a 3.8% sodium citrate solution was charged. The blood sample was centrifuged at 170 x g at room temperature for 10 min. The supernatant thus obtained was isolated as PRP. The residual blood sample that PRP had been taken out was centrifuged at 2,700 x g for 15 min. The supernatant was then taken as platelet poor plasma (PPP).
A platelet aggregation test was carried out with an aggligometer (PAM-8C, manufactured by MEBANICKS Co. Ltd.). Compounds under test were dissolved in physiological saline, 0.1 N hydrochloric acid-physiological saline, or 1 N aqueous sodium hydroxide solution-physiological saline. The compound under test and PRP were preincubated for 2 min. An aggregation inducer ADP (CHRONO-PAR REAGENTS 384 ADP, CHRONO-LOG Corp.) was used after dilution with physiological saline to a final concentration of 5 µM.
The anti-platelet aggregation activity was determined as an inhibition rate to platelet aggregation effect of ADP in the absence of a compound under tent as follows. Anti-platelet aggregation activity (%) = [1 - (aggregation rate by ADP in the presence of test compound/aggregation rate by ADP in the absence of test compound)] x 100 [formula]

Another assay has as its target T2, human TXA2 synthetase (Homo sapiens, UniProt P24557).
T2 construct: purchased BIOMOL
T2 sequence (P24557 1-533): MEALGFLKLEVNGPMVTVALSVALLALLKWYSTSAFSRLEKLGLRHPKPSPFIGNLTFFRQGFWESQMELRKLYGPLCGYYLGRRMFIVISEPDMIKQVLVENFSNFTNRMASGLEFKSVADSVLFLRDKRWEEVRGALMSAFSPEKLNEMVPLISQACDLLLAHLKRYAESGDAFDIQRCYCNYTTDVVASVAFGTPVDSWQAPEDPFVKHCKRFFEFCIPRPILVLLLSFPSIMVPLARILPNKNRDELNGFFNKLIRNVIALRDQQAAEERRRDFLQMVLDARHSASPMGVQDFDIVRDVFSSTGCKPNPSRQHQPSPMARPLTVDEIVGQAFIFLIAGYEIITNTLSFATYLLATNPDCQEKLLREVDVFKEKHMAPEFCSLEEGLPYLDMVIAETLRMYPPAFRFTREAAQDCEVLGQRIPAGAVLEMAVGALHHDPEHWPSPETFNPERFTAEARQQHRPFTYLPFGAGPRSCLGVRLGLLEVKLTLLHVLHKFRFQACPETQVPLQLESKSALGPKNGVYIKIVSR
As to the kind of experiment: Inhibitory activity against thromboxane A2 (TXA2) synthetase. Type of assay: biochemical. On the procedure:
The inhibitory activity of the compound of the present invention against TXA2 synthetase was assayed according to a method established by Ri et al. (Nihon Yakuri Gakkaishi, 106, 31 (1995)). A specimen solution (10 µl) was added to 100 µl of a 50 mM Tris-HCl buffer (containing 0.1 M NaCl, pH 7.5, 25°C) containing 10 µg of human TXA2 synthetase (BIOMOL), and incubation was then carried out at 25°C for 3 min. Next, 2 µl of 50 µg/ml PGH2 solution (Cayman Chemical) was added thereto to initiate an enzyme reaction, followed by the reaction at 25°C for 3 min. An aqueous ferrous chloride solution (25 mM, 10 µl) was added thereto to terminate the reaction. The reaction system was allowed to stand at room temperature for 15 min and then centrifuged under conditions of 4°C, 3000 x g, and 10 min. The supernatant was obtained as a sample for quantitative determination of TXB2. The amount of TXB2 was determined by means of Thromboxane B2 Enzyme Immunoassay Kit (Cayman Chemical). After a color reaction, the absorbance was measured at 415 nm with a microplate reader (MTP-32, manufactured by Corona Electric Co., Ltd.). The inhibition against TXA2 synthetase activity was calculated by the following equation, and 50% inhibition concentration was determined by regression straight line. Inhibition (%) = (1 - B/A) x 100 [formula] wherein • A represents the amount of TXB2 produced without the test compound; and • B represents the amount of TXB2 produced with the test compound.

Setting [3] is: purified human platelet GPIIb/IIIa, biotinylated human fibrinogen as ligand, read-out: IC50.
Setting [4] is: human TXA2 synthetase, PGH2 substrate, 25°C, TXB2 determined by enzyme immunoassay, read-out: IC50.

pIC50: −log10 of the molar value. Where a name gives a salt, the structure may show the parent alone. Read-outs that look alike come from different tables or passages of the source.

T1 sequence (P08514 32-887 limits assumed): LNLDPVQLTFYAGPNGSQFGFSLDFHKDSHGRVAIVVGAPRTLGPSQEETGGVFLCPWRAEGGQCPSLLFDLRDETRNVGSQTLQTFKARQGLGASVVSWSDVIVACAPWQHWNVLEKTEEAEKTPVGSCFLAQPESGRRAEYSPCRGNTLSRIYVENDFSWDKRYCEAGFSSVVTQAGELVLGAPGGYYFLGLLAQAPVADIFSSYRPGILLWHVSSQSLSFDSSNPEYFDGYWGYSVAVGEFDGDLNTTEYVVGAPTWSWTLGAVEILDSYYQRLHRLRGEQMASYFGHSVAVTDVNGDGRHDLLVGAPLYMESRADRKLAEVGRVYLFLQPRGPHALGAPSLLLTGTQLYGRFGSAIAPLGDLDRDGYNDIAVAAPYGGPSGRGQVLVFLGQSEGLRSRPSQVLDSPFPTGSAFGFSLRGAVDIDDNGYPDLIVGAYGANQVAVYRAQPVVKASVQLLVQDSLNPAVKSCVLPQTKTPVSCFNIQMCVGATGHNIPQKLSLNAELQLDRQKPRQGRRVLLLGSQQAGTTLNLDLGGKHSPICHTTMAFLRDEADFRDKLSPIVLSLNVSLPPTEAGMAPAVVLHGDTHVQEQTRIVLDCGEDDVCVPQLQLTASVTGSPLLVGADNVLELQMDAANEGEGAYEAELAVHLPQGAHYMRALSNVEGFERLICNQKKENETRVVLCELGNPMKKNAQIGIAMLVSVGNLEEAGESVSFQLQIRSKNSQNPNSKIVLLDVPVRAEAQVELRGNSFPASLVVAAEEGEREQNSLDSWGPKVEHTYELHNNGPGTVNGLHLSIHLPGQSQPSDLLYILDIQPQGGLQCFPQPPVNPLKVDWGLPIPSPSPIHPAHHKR
T1 sequence (P08514 891-1039 partner limits assumed): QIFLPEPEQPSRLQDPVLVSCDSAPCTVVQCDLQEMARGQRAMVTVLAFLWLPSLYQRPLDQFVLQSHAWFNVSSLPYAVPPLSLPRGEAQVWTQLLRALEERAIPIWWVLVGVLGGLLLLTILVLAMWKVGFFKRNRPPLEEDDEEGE
T1 sequence (P05106 27-788): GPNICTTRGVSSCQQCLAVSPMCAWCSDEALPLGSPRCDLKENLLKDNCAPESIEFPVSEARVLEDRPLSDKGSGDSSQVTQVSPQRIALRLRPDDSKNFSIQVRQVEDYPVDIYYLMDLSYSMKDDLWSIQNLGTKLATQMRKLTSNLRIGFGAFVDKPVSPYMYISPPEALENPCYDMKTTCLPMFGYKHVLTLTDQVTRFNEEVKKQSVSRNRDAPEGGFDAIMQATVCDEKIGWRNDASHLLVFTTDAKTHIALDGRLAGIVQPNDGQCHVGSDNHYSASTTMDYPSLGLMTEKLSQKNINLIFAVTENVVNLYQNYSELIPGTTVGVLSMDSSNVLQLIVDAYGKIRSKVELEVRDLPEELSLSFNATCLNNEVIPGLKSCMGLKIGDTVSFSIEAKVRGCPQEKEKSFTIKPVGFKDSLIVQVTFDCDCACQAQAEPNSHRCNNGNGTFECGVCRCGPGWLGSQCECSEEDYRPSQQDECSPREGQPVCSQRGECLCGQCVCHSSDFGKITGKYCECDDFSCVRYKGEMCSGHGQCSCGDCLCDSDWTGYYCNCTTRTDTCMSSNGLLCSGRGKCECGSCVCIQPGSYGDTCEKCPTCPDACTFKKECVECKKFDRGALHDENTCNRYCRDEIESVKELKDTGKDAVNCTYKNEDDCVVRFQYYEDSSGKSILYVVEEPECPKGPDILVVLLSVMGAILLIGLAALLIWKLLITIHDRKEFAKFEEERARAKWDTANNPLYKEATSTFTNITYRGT

By pIC50 is commonly meant −log10 of the IC50, conventionally taken in molar units. With `O=C(O)COc1ccc(C(=O)CNC(=O)c2cc3c(s2)CCNC3)cc1Cn1ccnc1` [Example 1, [2-(Imidazol-1-yl)methyl-4-[[[4,5,6,7-tetrahydrothieno[3,2-c]pyridin-2-yl]carbonylamino]acetyl]phenyl]oxyacetic acid trifluoroacetate (TFA)], the pIC50 in assay [1] (setting [3]) was 6.57; in assay [2] (Platelet) it was 5.36; at human TXA2 synthetase (setting [4]), 6.44.

Consider `O=C(O)COc1ccc(C(=O)CNC(=O)c2cc3c(s2)CCNC3)cc1COc1cccnc1` [Example 2, [2-(Pyridin-3-yl)oxymethyl-4-[[[4,5,6,7-tetrahydrothieno[3,2-c]pyridin-2-yl]carbonylamino]acetyl]phenyl]oxyacetic acid trifluoroacetate], for which the results for the pIC50 (in assay [1] (setting [3]); in assay [2] (Platelet); at human TXA2 synthetase (setting [4])) were 6.57, 5.03 and under 5.00, respectively.

Consider `O=C(O)COc1ccc(C(CNC(=O)c2cc3c(s2)CCNC3)Oc2cccnc2)cc1OCC(=O)O` (stereo not drawn) [Example 3, [[4-[2-[[4,5,6,7-Tetrahydrothieno[3,2-c]pyridin-2-yl]carbonyl]amino-1-[(pyridin-3-yl)oxy]ethyl]-o-phenylene]dioxy]diacetic acid trifluoroacetate], for which the results for the pIC50 (in assay [1] (setting [3]); in assay [2] (Platelet); at human TXA2 synthetase (setting [4])) were 8.85, 6.44 and 6.26, respectively.

Regarding `CN(CC(Oc1cccnc1)c1ccc(OCC(=O)O)c(OCC(=O)O)c1)C(=O)c1cc2c(s1)CCNC2` (stereo not drawn) [Example 4, [[4-[2-[[(4,5,6,7-Tetrahydrothieno[3,2-c]pyridin-2-yl)carbonyl]-N-methylamino]-1-(pyridin-3-yl)oxyethyl]-o-phenylene]dioxy]diacetic acid trifluoroacetate], the pIC50 in assay [1] (setting [3]) is 8.32; in assay [2] (Platelet) it was 6.85; at human TXA2 synthetase (setting [4]), 6.06.

Turning to `O=C(O)COc1ccc(C(CNC(=O)c2cc3c(s2)CCNC3)Oc2cccnc2)cc1` (stereo not drawn) [Example 5, [4-[2-[[(4,5,6,7-Tetrahydrothieno[3,2-c]pyridin-2-yl)carbonyl]amino]-1-(pyridin-3-yl)oxyethyl]phenyl]oxyacetic acid trifluoroacetate], the pIC50 in assay [1] (setting [3]) was 8.00; in assay [2] (Platelet), 6.55; on human TXA2 synthetase (setting [4]), 6.80.

As for `O=C(O)COc1ccc(C(=O)CN2CCN(C3CCNCC3)CC2=O)cc1Cn1ccnc1` [Example 6, [2-(1-Imidazolylmethyl)-4-[[4-(piperidin-4-yl)-2-oxopiperazin-1-yl]acetyl]phenyl]oxyacetic acid trifluoroacetate], the results for the pIC50 (in assay [1]; in assay [2] (Platelet); against human TXA2 synthetase) were 7.92, 7.15 and 6.24, respectively.

As for `O=C(O)COc1ccc(C(=O)CN2C(=O)CN(C3CCNCC3)CC2=O)cc1Cn1ccnc1` [Example 8, [2-(1-Imidazolylmethyl)-4-[[4-(piperidin-4-yl)-2,6-dioxopiperazin-1-yl]acetyl]phenyl]oxyacetic acid trifluoroacetate], the pIC50 in assay [1] (purified human platelet GPIIb/IIIa, biotinylated human fibrinogen as ligand) was 6.72; in assay [2] (Platelet), 7.51; against human TXA2 synthetase (human TXA2 synthetase, PGH2 substrate, 25°C, TXB2 determined by enzyme immunoassay) it was 6.16.

“[4-[[4-(Piperidin-4-yl)-2-oxopiperazin-1-yl]acetyl]-2-(3-pyridyloxymethyl)phenyl]oxyacetic acid trifluoroacetate [Example 7]”: the results for the pIC50 (in assay [1] (setting [3]); in assay [2]; on human TXA2 synthetase (setting [4])) were 7.64, 7.03 and under 5.00, respectively.
